In ChEMBL document CHEMBL3352022, “Preparation and biological evaluation of 1'-cyano-2'-C-methyl pyrimidine nucleosides as HCV NS5B polymerase inhibitors” (Bioorg Med Chem Lett, 2014):

Experiments:
[1] = system: Hepatitis C virus; assay: Antiviral activity against HCV1b assessed as inhibition of viral replication by cell based 384 well format assay; type: functional, Hepacivirus hominis; details: genotype 1b
[2] = system: Hepatitis C virus; assay: Antiviral activity against HCV1a assessed as inhibition of viral replication by cell based 384 well format assay; type: functional, Hepacivirus hominis; details: subtype 1a
[3] = Inhibition of HCV1b NS5B polymerase; set-up: species or system Hepatitis C virus subtype 1b
[4] = system: Hepatitis C virus; assay: Antiviral activity against HCV1b in Rluc cells assessed as TP level per million cells after 24 hrs by liquid chromatography; type: functional, Hepacivirus hominis, genotype 1b

Structure (SMILES)	EC50 [1]	EC50 [2]	IC50 [3]	Activity [4]
C[C@@]1(O)[C@H](O)[C@@H](CO)O[C@@]1(C#N)c1ccc2c(N)ncnn12	> 89000 nM	> 89000 nM	–	–
C[C@@]1(O)[C@H](O)[C@@H](CO)O[C@@]1(C#N)n1ccc(N)nc1=O	> 89000 nM	76000 nM	17700 nM	–
C[C@@]1(O)[C@H](O)[C@@H](CO)O[C@@]1(C#N)n1ccc(=O)[nH]c1=O	> 89000 nM	> 89000 nM	27000 nM	–
CC(C)OC(=O)[C@H](C)N[P@](=O)(OC[C@H]1O[C@@](C#N)(n2ccc(N)nc2=O)[C@](C)(O)[C@@H]1OC(=O)C(C)C)Oc1ccccc1	600 nM	250 nM	–	–
C[C@@]1(O)[C@H](O)[C@@H](CO)O[C@H]1n1ccc(N)nc1=O	2800 nM	2500 nM	1670 nM	–
CC(C)OC(=O)[C@H](C)N[P@+]([O-])(OC[C@H]1O[C@@](C#N)(c2ccc3c(N)ncnn23)[C@](C)(O)[C@@H]1OC(=O)C(C)C)Oc1ccccc1 [GS-6620]	240 nM	94 nM	–	40 pmol
